pIC50: −log10 of the molar value. Bounds are passed on as bounds.

For seven molecules, IC50 and inhibition results are on record in ChEMBL document CHEMBL3734665, “Design, synthesis and evaluation of antiestrogen and histone deacetylase inhibitor molecular hybrids” (Bioorg Med Chem, 2015).

Assay [1] addresses T1, Protein deacetylase HDAC6 (Homo sapiens, UniProt Q9UBN7).
T1 sequence (Q9UBN7 whole entry): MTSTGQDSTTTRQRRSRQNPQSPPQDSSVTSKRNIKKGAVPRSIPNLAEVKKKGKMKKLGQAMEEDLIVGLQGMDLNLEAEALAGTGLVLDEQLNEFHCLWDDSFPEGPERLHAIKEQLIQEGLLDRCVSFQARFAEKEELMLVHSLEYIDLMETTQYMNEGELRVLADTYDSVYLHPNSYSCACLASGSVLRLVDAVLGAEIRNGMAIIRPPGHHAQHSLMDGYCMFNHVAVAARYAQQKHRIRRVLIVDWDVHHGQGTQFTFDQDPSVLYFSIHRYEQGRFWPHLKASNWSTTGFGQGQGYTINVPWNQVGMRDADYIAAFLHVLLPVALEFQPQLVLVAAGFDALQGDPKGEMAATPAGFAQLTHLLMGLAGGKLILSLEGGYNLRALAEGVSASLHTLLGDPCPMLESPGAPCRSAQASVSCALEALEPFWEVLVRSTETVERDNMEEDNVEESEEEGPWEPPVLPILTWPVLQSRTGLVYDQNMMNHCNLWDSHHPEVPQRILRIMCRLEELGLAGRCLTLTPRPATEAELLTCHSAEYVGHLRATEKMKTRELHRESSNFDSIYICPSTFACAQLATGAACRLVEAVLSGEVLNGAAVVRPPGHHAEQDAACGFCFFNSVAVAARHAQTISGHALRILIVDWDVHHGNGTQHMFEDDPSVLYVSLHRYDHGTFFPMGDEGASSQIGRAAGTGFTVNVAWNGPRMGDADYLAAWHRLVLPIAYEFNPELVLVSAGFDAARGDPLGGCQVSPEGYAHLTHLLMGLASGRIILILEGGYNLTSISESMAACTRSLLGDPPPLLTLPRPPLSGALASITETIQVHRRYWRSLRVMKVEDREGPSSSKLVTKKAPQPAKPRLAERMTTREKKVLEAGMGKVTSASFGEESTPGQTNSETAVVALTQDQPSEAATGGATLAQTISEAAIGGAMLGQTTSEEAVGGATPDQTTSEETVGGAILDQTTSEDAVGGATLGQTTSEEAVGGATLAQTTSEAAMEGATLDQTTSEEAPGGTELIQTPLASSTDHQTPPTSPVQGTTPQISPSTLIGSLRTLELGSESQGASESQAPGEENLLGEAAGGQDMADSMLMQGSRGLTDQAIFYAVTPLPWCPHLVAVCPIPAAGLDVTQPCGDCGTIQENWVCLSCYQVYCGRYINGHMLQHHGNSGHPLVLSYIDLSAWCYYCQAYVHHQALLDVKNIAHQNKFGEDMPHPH
Put plainly: Inhibition of human recombinant HDAC6 using Boc-Lys(Ac)-AMC as substrate after 30 mins by fluorescence assay.

The target of assay [2] is Histone deacetylase 3 (Homo sapiens, UniProt O15379). Briefly: Inhibition of human recombinant HDAC3 using Boc-Lys(Ac)-AMC as substrate after 30 mins by fluorescence assay.
The target of assay [3] is T2, Estrogen receptor (Homo sapiens, UniProt P03372).
T2 sequence (P03372 whole entry): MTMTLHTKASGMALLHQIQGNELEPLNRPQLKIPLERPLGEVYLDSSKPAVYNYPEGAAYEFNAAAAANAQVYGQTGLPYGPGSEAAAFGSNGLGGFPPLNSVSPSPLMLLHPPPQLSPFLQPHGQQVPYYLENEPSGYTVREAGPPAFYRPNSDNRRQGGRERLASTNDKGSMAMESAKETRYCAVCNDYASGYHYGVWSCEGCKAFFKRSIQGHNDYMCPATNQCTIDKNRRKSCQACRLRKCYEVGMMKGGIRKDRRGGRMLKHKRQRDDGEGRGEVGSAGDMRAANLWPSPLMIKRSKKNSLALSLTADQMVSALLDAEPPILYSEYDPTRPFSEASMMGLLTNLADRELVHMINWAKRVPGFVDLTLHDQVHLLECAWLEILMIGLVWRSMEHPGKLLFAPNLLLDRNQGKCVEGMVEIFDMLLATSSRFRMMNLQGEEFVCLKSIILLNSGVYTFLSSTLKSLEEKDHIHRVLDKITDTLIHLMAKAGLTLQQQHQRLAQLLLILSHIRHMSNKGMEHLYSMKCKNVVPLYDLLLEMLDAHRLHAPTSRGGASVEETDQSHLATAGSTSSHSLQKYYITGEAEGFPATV
Put plainly: Antagonist activity at ERalpha in human T47D-KBLuc cells assessed as inhibition of E2-induced transcriptional activity by luciferase reporter gene assay. Format: cell-based.

In assay [4] the test system is MCF7. Briefly: Antiproliferative activity against human MCF7 cells treated for 48 hrs followed by refreshed every 96 hrs measured on day 10 by Lowry assay. Format: functional, cell-based.
For assay [5], the target named is T2, Estrogen receptor. Briefly: (§1) Antagonist activity at luciferase-fused ERalpha in human HEK293 cells expressing eYFP assessed as reduction of E2-induced estrogenic activity after 2 hrs by BRET assay. Format: cell-based. (BRET reads energy transfer from a luciferase to a nearby fluorophore.)
In assay [6] the target is T3, Estrogen receptor (Homo sapiens) (UniProt P03372).
T3 sequence (whole entry): T2 sequence (P03372 whole entry)
The assay is described as §1. Format: cell-based.

The subject of assay [7] is MDA-MB-231. Put plainly: Antiproliferative activity against human MDA-MB-231 cells treated for 48 hrs followed by refreshed every 96 hrs measured on day 10 by Lowry assay. Format: functional, cell-based.

Histone deacetylase 3, sequence (O15379 whole entry): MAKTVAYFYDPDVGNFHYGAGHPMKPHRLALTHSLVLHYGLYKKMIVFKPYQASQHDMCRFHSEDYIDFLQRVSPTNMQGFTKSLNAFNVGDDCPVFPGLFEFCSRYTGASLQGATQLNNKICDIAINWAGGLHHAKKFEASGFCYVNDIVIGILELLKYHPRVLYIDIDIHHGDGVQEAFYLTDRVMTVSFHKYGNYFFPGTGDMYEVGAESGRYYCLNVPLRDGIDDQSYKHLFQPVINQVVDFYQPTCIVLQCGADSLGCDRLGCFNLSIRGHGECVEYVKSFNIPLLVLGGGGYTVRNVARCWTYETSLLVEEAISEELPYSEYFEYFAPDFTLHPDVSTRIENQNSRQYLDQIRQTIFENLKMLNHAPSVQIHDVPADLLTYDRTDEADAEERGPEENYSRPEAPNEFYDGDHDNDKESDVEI

Turning to `C[C@]12CC[C@@H]3c4ccc(O)cc4C[C@@H](CCCCCCCCCCC(=O)NO)[C@H]3[C@@H]1CC[C@@H]2O`, the pIC50 in assay [1] was 5.94; in assay [2], 6.02; in assay [3] it was 5.97; in assay [4], 5.53; in assay [5] it was 6.29. For the same molecule, the inhibition entry in assay [6] is “Dose-dependent effect”.
Consider `CCCCN(C)C(=O)CCCCCCCCCC[C@@H]1Cc2cc(O)ccc2[C@H]2CC[C@]3(C)[C@@H](O)CC[C@H]3[C@H]12`, for which the negative logarithm of the IC50 (pIC50) in assay [4] is 6.03.
On the same count and under the same terms, for `Nc1ccccc1NC(=O)c1ccc(CNC(=O)OCc2cccnc2)cc1` [ENTINOSTAT] the value was 6.46.
Still for that read-out and setting: for `CC/C(=C(\c1ccc(O)cc1)c1ccc(OCCN(C)C)cc1)c1ccccc1` [AFIMOXIFENE] the value was 6.82.
Consider `C[C@]12CC[C@@H]3c4ccc(O)cc4C[C@@H](CCCCCCCCCCC(=O)Nc4ccccc4N)[C@H]3[C@@H]1CC[C@@H]2O`, for which the negative-log IC50 (pIC50) is under 4.30 in assay [1]; 5.50 in assay [2]; 6.14 in assay [3]; 5.72 in assay [4]; 6.68 in assay [5]. In assay [6], the inhibition result is “Dose-dependent effect”.
In the case of `CCCCN(O)C(=O)c1cccc(NC(=O)CCCCCS[C@@H]2Cc3cc(O)ccc3[C@H]3CC[C@]4(C)[C@@H](O)CC[C@H]4[C@@H]32)c1`, the negative logarithm of the IC50 (pIC50) is 4.36 in assay [1]; 5.30 in assay [7]; 5.81 in assay [2]; 6.74 in assay [3]; 6.47 in assay [4]; 7.30 in assay [5]. In assay [6], the inhibition entry is “Dose-dependent effect”.
On to `CCCCN(O)C(=O)CCCCCCCCCC[C@@H]1Cc2cc(O)ccc2[C@H]2CC[C@]3(C)[C@@H](O)CC[C@H]3[C@H]12`, for which the negative-log IC50 (pIC50) in assay [1] is under 4.30; in assay [2], under 5.30; in assay [3] it was 5.68; in assay [4] it was 5.04; in assay [5], 5.59. For the same molecule, the inhibition result in assay [6] was “Dose-dependent effect”.

In general, pIC50 refers to the IC50 on a negative log10 scale, so that one unit is a factor of ten.
